Reference: PMC6792352, “Limited Chemical Structural Diversity Found to Modulate Thyroid Hormone Receptor in the Tox21 Chemical Library” (Environmental Health Perspectives, 2019)
Structures can show the parent of a compound that is named as a salt.

Experiment: in vitro
Details: rat, gh3-tre-luc cells

Compound	CC50 at 24 h (AC50 (uM) modified / 1000)	further results
CCN(CC)Cc1cc(Nc2ccnc3cc(Cl)ccc23)ccc1O [Amodiaquin dihydrochloride dihydrate]	13.5 µM	–
CCCCCCCCCCC(CO)CCCCCCCC (stereo not drawn) [2-Octyl-1-dodecanol]	> 90 µM	–
O=[N+]([O-])c1nccn1CO[C@@H](CO)[C@H](O)CO [Doranidazole]	> 50 µM	–
O=S(=O)(O)CO [Sodium hydroxymethanesulfonate]	> 90 µM	–
OCCCC1CCCCC1 [3-Cyclohexylpropan-1-ol]	> 90 µM	–
Clc1ccc(Nc2nnc(Cc3ccncc3)c3ccccc23)cc1 [Vatalanib]	> 50 µM	–
CC(O)COCC(C)O (stereo not drawn) [1,1'-Oxybis-2-propanol]	> 90 µM	–
COc1ccc(CN2CCN(C(c3ccc(F)cc3)c3ccc(F)cc3)CC2)c(OC)c1OC [Lomerizine dihydrochloride]	10.5 µM	–
CC(C(=O)O)c1ccc2c(c1)[nH]c1ccc(Cl)cc12 (stereo not drawn) [Carprofen]	> 50 µM	–
FC(F)(F)C(Cl)Br (stereo not drawn) [Halothane]	> 90 µM	–
CCCCC(CC)COC(=O)/C=C/c1ccc(OC)cc1 (stereo not drawn) [2-Ethylhexyl trans-4-methoxycinnamate]	> 90 µM	–
COc1ccccc1C=CC=O [2-Methoxycinnamaldehyde]	77.5 µM	–
C[N+]1(C)CCC(=C(c2ccccc2)c2ccccc2)CC1 [Diphemanil methylsulfate]	> 20 µM	–
CCN(CC)C(=O)N[C@H]1C[C@@H]2c3cccc4[nH]cc(c34)C[C@H]2N(C)C1 [Terguride]	> 50 µM	–
CN(C)Cc1ccccc1O [2-((Dimethylamino)methyl)phenol]	> 90 µM	–
C1CCNCC1 [Piperidine]	> 90 µM	–
C[C@](N)(Cc1ccc(O)cc1)C(=O)O [Metyrosine]	> 50 µM	–
NC(=O)c1ncn([C@@H]2O[C@H](CO)[C@@H](O)[C@H]2O)c1O [Mizoribine]	> 50 µM	–
COC(=O)c1c(C)cc(O)c(C)c1O [Methyl 2,4-dihydroxy-3,6-dimethylbenzoate]	> 90 µM	–
CC1=C(C)S(=O)(=O)CCS1(=O)=O [Dimethipin]	> 90 µM	–
O=c1[nH]c(=O)n([C@H]2C[C@H](O)[C@@H](CO)O2)cc1/C=C/Br [Brivudine]	> 50 µM	–

Compound	CC50 at 24 h (AC50 (uM) modified / 1000)	further results
CC(C)(C)NC[C@H](O)COc1ccccc1C1CCCC1 [Penbutolol sulfate]	11.1 µM	–
CCCCCCCC1CCCC1=O (stereo not drawn) [2-Heptylcyclopentanone]	> 90 µM	–
CN1CCN(C2=Nc3cc(F)ccc3Cc3ccccc32)CC1 [Fluperlapine]	11.9 µM	–
O=C(O)c1cn(-c2ccc(F)cc2)c2cc(N3CCNCC3)c(F)cc2c1=O [Sarafloxacin hydrochloride]	> 50 µM	–
Cc1ncc(CO)c(C=O)c1O [Pyridoxal]	> 50 µM	–
O=C(O)c1cc(=O)[nH]c(=O)[nH]1 [Orotic acid]	> 90 µM	–
C=C[C@](C)(O)CC[C@@H]1[C@@]2(C)CCCC(C)(C)[C@@H]2CC[C@@]1(C)O [Sclareol]	29.3 µM	–
Oc1ccc(Cc2ccccc2O)cc1 [2-(4-Hydroxybenzyl)phenol]	> 90 µM	–
ClC1=C(Cl)[C@]2(Cl)C3C(Cl)C(Cl)CC3[C@@]1(Cl)C2(Cl)Cl (stereo partly drawn) [Chlordane]	–	CC50 at 24 h (AC50 (uM) modified / 1000, Tox21_110001=Tox21_300586, viability, 1 nM T3 present, 24 h): 25.5 µM
CCCC(=O)OC(C)(C)Cc1ccccc1 [1,1-Dimethyl-2-phenylethyl butanoate]	> 90 µM	–
C#CC(O)C(CC)CCCC (stereo not drawn) [4-Ethyloct-1-yn-3-ol]	> 90 µM	–
Nc1ccc(Sc2ccc(N)cc2)cc1 [4,4'-Thiodianiline]	> 90 µM	–
CC(C)(O)C(=O)c1ccccc1 [2-Hydroxy-2-methylpropiophenone]	> 90 µM	–
COc1ccc(/C=C/c2cc(OC)cc(=O)o2)cc1 [Yangonin]	> 40 µM	–
CCCCCCCCCCCCN1CCCCCC1=O [Laurocapram]	45.3 µM	–
CCc1cc(Cc2cc(CC)cc(C(C)(C)C)c2O)c(O)c(C(C)(C)C)c1 [2,2'-Methylenebis(ethyl-6-tert-butylphenol)]	7.35 µM	–
CCCCC(CC)COCC1CO1 (stereo not drawn) [2-Ethylhexyl glycidyl ether]	> 90 µM	–
c1ccc(C(O[C@@H]2CCCN(CCc3ccc4c(c3)OCO4)C2)c2ccccc2)cc1 [Zamifenacin fumarate]	26.4 µM	–
CC(CCl)OC(C)CCl (stereo not drawn) [bis(2-Chloro-1-methylethyl) ether]	> 90 µM	–
C/C=C/C(=O)CCCC [2-Octen-4-one]	> 90 µM	–
CCC1(CCC(C)C)C(=O)NC(=O)NC1=O [Amobarbital]	> 90 µM	–

Compound	CC50 at 24 h (AC50 (uM) modified / 1000)	further results
O=C(O)C(F)(F)C(F)(F)C(F)(F)C(F)(F)C(F)(F)C(F)(F)F [Perfluoroheptanoic acid]	–	CC50 at 24 h (AC50 (uM) modified / 1000, Tox21_110001=Tox21_300616, viability, 1 nM T3 present, 24 h): > 90 µM
C[N+](C)(CCCCCC[N+](C)(C)C1c2ccccc2-c2ccccc21)C1c2ccccc2-c2ccccc21 [Hexafluorenium dibromide]	> 50 µM	–
COc1ccc(C2NC(=S)N3C(c4ccc(OC)c(OC)c4)NC(=S)N23)cc1OC (stereo not drawn) [3,7-Bis(3,4-dimethoxyphenyl)tetrahydro-1H,5H-[1,2,4]triazolo[1,2-a][1,2,4]triazole-1,5-dithione]	0.208 µM	–
Clc1ccccc1-c1ccccc1Cl [2,2'-Dichlorobiphenyl]	–	CC50 at 24 h (AC50 (uM) modified / 1000, Tox21_110001=Tox21_202244, viability, 1 nM T3 present, 24 h): > 100 µM
CC1=NS(=O)(=O)c2cc(Cl)ccc2N1 [Diazoxide]	> 50 µM	–
Nc1ccc(F)cc1F [2,4-Difluoroaniline]	> 90 µM	–
C/C(=C(\CCOC(=O)c1ccccc1)SS/C(CCOC(=O)c1ccccc1)=C(/C)N(C=O)Cc1cnc(C)nc1N)N(C=O)Cc1cnc(C)nc1N [Bisbentiamine]	25.6 µM	–
CC1CCC(=O)C1=O (stereo not drawn) [3-Methyl-1,2-cyclopentanedione]	> 100 µM	–
C1C2OC2C2C1C1CC2C2OC12 (stereo not drawn) [Dicyclopentadiene dioxide]	> 90 µM	–
Cc1ccc(CO)cc1 [4-Methylbenzyl alcohol]	> 90 µM	–
CCCCCCCC/C=C\CCCCCCCC(=O)O [Oleic acid]	> 90 µM	–
C[C@@H]1C[C@H]2[C@@H]3C[C@H](F)C4=CC(=O)C=C[C@]4(C)[C@@]3(Cl)[C@@H](O)C[C@]2(C)[C@H]1C(=O)COC(=O)C(C)(C)C [Clocortolone pivalate]	> 50 µM	–
C=CC(C)=O [Methyl vinyl ketone]	–	CC50 at 24 h (AC50 (uM) modified / 1000, Tox21_110001=Tox21_200363, viability, 1 nM T3 present, 24 h): > 90 µM
c1coc(-c2nc3ccccc3[nH]2)c1 [Fuberidazole]	> 90 µM	–
NC(=O)Cc1cccc2ccccc12 [1-Naphthaleneacetamide]	> 90 µM	–
CC(C)N(C(=O)COc1nnc(C(F)(F)F)s1)c1ccc(F)cc1 [Flufenacet]	> 90 µM	–
CC(C)C(=O)OC(=O)C(C)C [Isobutyric anhydride]	> 90 µM	–
CC(C)(C#N)c1cc(Cn2cncn2)cc(C(C)(C)C#N)c1 [Anastrozole]	> 30 µM	–
CCN(CC)CCNC(=O)c1cc(Br)c(N)cc1OC [Bromopride]	> 50 µM	–
COc1ccc(C(=O)c2ccc(OC)cc2O)c(O)c1 [2,2'-Dihydroxy-4,4'-dimethoxybenzophenone]	> 90 µM	–
Cc1ccccc1C [o-Xylene]	> 90 µM	–

Compound	CC50 at 24 h (AC50 (uM) modified / 1000)	further results
CC(C)C[C@H]1C(=O)N2CCC[C@H]2[C@]2(O)O[C@](NC(=O)[C@@H]3C[C@@H]4c5cccc6[nH]cc(c56)C[C@H]4N(C)C3)(C(C)C)C(=O)N12 [Dihydroergocriptine]	–	CC50 at 24 h (AC50 (uM) modified / 1000, Tox21_110001=Tox21_113078, viability, 1 nM T3 present, 24 h): 39.2 µM
C=C1C[C@H]2[C@@H]3C=C(C)C4=CC(=O)CC[C@]4(C)[C@H]3CC[C@]2(C)[C@@]1(OC(C)=O)C(C)=O [Melengestrol acetate]	> 60 µM	–
CSSc1ccoc1C [Methyl 2-methyl-3-furyl disulfide]	> 80 µM	–
C[C@H](CCC(=O)O)[C@H]1CC[C@H]2[C@@H]3[C@H](O)C[C@@H]4C[C@H](O)CC[C@]4(C)[C@H]3C[C@H](O)[C@]12C [Cholic acid piperazine (1:1)]	> 50 µM	–
CCCC[N+](=O)[O-] [1-Nitrobutane]	> 90 µM	–
O=C(O)/C=C\C(=O)O [Maleic acid]	> 90 µM	–
COC(=O)N(C(=O)N1CO[C@@]2(C(=O)OC)Cc3cc(Cl)ccc3C2=N1)c1ccc(OC(F)(F)F)cc1 [Indoxacarb]	> 70 µM	–
O=C(N[C@H]1N=C(c2ccccc2F)c2cccc3c2N(CC3)C1=O)c1cc2ccccc2[nH]1 [Pranazepide]	> 50 µM	–
O=C(O)CCC(=O)O [Butanedioic acid]	> 90 µM	–
CC1(C)NC(=O)NC1=O [5,5-Dimethylhydantoin]	> 90 µM	–
CC(C(=O)O)c1ccc(CC2CCCC2=O)cc1 (stereo not drawn) [Loxoprofen]	> 50 µM	–
CCCC[P+](C)(CCCC)CCCC [Tributylmethylphosphonium methyl sulfate]	> 90 µM	–
C=C(C)C1CCC(C)(O)CC1 (stereo not drawn) [beta-Terpineol]	> 90 µM	–
Nc1nc2ccccc2[nH]1 [2-Aminobenzimidazole]	> 90 µM	–
CC(=O)CC(=O)Nc1ccc(C)cc1C [N-(2,4-Dimethylphenyl)-3-oxobutanamide]	> 90 µM	–
N#CCBr [Bromoacetonitrile]	> 100 µM	–
O=C(O)Cc1cn(-c2ccccc2)nc1-c1ccc(Cl)cc1 [Lonazolac]	> 50 µM	–
CCCCCCCCCCn1cc[n+](CCCCCCCCCC)c1C [1,3-Didecyl-2-methylimidazolium chloride]	6.21 µM	–
CN(C)c1ccc(N=Nc2ccccc2)cc1 [4-(Dimethylamino)azobenzene]	–	CC50 at 24 h (AC50 (uM) modified / 1000, Tox21_110001=Tox21_200757, viability, 1 nM T3 present, 24 h): > 90 µM
O=C(O)CNC(=O)c1ccccc1 [Hippuric acid]	> 50 µM	–
C[C@H]1C[C@@H](O)CC(C)(C)C1 (stereo in doubt) [(1R,5R)-3,3,5-trimethylcyclohexanol]	> 90 µM	–
